Measured values as given in patent US8026365B2, “4,4-disubstituted piperidine derivatives” (Hoffman-La Roche Inc., priority 2007, dated 2011).

target: T1, human subtype 5 somatostatin receptor (SSTR5) (Homo sapiens, UniProt P35346); test: radioligand replacement (binding) assay, 125I-labeled 11-Tyr somatostatin-14, membranes of CHO cells expressing SSTR5; settings: membranes of CHO cells stably transfected with human SSTR5; 0.05 nM 125I tracer; Ki calculated from IC50 by Cheng-Prussoff equation
T1 construct: host or cells: CHO cell line, stably transfected; membranes prepared by sonication and centrifugation
T1 sequence (P35346 whole entry): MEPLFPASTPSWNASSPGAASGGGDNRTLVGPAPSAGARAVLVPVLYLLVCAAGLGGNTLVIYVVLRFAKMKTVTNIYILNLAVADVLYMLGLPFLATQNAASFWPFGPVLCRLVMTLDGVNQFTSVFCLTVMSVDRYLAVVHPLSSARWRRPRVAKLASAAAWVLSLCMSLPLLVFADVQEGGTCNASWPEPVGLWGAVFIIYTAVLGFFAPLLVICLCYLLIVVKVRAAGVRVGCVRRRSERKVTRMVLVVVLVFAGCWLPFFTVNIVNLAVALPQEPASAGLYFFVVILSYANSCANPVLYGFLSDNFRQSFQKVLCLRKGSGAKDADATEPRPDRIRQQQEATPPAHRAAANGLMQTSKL
Procedure: A CHO cell line stably transfected with a plasmid encoding the human subtype 5 somatostatin receptor (GenBank accession number D16827) was obtained from Euroscreen. Cells were cultured and used for binding and functional assays.
Membranes of these cells were prepared by sonication in the presence of protease inhibitors and subsequent fractionating centrifugation. The protein concentration in the membrane preparation was determined using a commercial kit (BCA kit, Pierce, USA). Membranes were stored at −80° C. until use. After thawing membranes were diluted in assay buffer (50 mM Tris-HCl at pH 7.4, 5 mM MgCl2 and 0.20% BSA) and subjected to dounce homogenization.
For binding studies, 0.1 mL membrane suspension, corresponding to approximately 6×10^−15 mol receptor, was incubated for 1 h at room temperature with 0.05 nM ^125I-labeled tracer (11-Tyr somatostatin-14, Perkin-Elmer) and either test compounds in varying concentrations or, for the determination of non-specific binding, 0.001 mM non-labeled somatostatin-14. The incubation was stopped by filtration through GF/B glassfiber filters and washing with ice-cold wash buffer (50 mM Tris-HCl at pH 7.4). The bound radioactivity was measured after application of a scintillation cocktail (Microscint 40) and expressed as disintegrations per minute (dpm).
The receptor concentration was determined in a prior saturation experiment where a fixed, arbitrary amount of membranes was incubated with a concentration range of radio-labeled tracer. This allows estimating the total number of specific binding sites per amount of protein (i.e., Bmax), typically between 1 and 5 pmol/mg.
The concentration of the test compound required to result in half maximal inhibition of binding of the radio-labeled tracer (IC50) was estimated from a concentration-versus-dpm graph. The binding affinity (Ki) was calculated from the IC50 by applying the Cheng-Prussoff equation for single binding sites.

Row | Compound | Ki
1 | CCOc1cc(CN2CCC3(CC2)NC(=O)NC3=O)ccc1Cl [Example 2, 8-(4-chloro-3-ethoxy-benzyl)-1,3,8-triaza-spiro[4.5]decane-2,4-dione] | 51 nM
2 | CCOc1cc(CN2CCC3(CC2)N=C(c2ccccc2)NC3=O)ccc1C [Example 15, 8-(3-ethoxy-4-methyl-benzyl)-2-phenyl-1,3,8-triaza-spiro[4.5]dec-1-en-4-one] | 37 nM
3 | CCOc1cc(CN2CCC(NC(=O)c3ccc(Cl)cc3)(C(N)=O)CC2)cc(OCC)c1Cl [Example 42, 4-(4-chloro-benzoylamino)-1-(4-chloro-3,5-diethoxy-benzyl)-piperidine-4-carboxylic acid amide] | 96 nM
4 | CCOc1cc(CN2CCC3(CC2)N=C(c2ccccc2)NC3=O)cc(OCC)c1Br [Example 38, 8-(4-bromo-3,5-diethoxy-benzyl)-2-phenyl-1,3,8-triaza-spiro[4.5]dec-1-en-4-one] | 18 nM
5 | COc1ccc(CN2CCC3(CC2)N=C(c2ccccc2)NC3=O)cc1OC1CCCC1 [Example 33, 8-(3-cyclopentyloxy-4-methoxy-benzyl)-2-phenyl-1,3,8-triaza-spiro[4.5]dec-1-en-4-one] | 273 nM
6 | COc1ccc(CN2CCC3(CC2)N=C(c2ccccc2)NC3=O)cc1OCCF [Example 29, 8-[3-(2-fluoro-ethoxy)-4-methoxy-benzyl]-2-phenyl-1,3,8-triaza-spiro[4.5]dec-1-en-4-one] | 717 nM
7 | CCOc1cc(CN2CCC3(CC2)NC(=O)NC3=O)cc(OCC)c1-n1cccc1 [Example 7, 8-(3,5-diethoxy-4-pyrrol-1-yl-benzyl)-1,3,8-triaza-spiro[4.5]decane-2,4-dione] | 15 nM
8 | CCOc1cc(CN2CCC3(CC2)NC(=O)NC3=O)cc(OCC)c1Cl [Example 5, 8-(4-chloro-3,5-diethoxy-benzyl)-1,3,8-triaza-spiro[4.5]decane-2,4-dione] | 42 nM
9 | CCOc1cc(CN2CCC(C#N)(NC(=O)c3cncc(C)c3)CC2)cc(OCC)c1F [Example 44, N-[4-cyano-1-(3,5-diethoxy-4-fluoro-benzyl)-piperidin-4-yl]-5-methyl-nicotinamide] | 342 nM
10 | CCOc1cc(CN2CCC(C#N)(NC(=O)c3ccc(Cl)nc3)CC2)cc(OCC)c1-c1ccc(F)cc1 [Example 46, 6-chloro-N-[4-cyano-1-(2,6-diethoxy-4′-fluoro-biphenyl-4-ylmethyl)-piperidin-4-yl]-nicotinamide] | 66 nM
11 | CCOc1cc(CN2CCC3(CC2)CCN(c2ccccc2)C3=O)cc(OCC)c1Cl [Example 11, 8-(4-chloro-3,5-diethoxy-benzyl)-2-phenyl-2,8-diaza-spiro[4.5]decan-1-one] | 228 nM
12 | CCOc1cc(CN2CCC3(CC2)N=C(c2ccccc2)NC3=O)ccc1Cl [Example 17, 8-(4-chloro-3-ethoxy-benzyl)-2-phenyl-1,3,8-triaza-spiro[4.5]dec-1-en-4-one] | 50 nM
13 | CCOc1cc(CN2CCC3(CC2)N=C(c2ccccc2)NC3=O)ccc1OC(F)F [Example 26, 8-(4-difluoromethoxy-3-ethoxy-benzyl)-2-phenyl-1,3,8-triaza-spiro[4.5]dec-1-en-4-one] | 226 nM
